Our source for the viability, selectivity ratio and Activity values is ChEMBL document CHEMBL3865833, “Functional induction of P-glycoprotein efflux pump by phenyl benzenesulfonamides: Synthesis and biological evaluation of T0901317 analogs” (Eur J Med Chem, 2016).

A short description of data set [1]: Cytotoxicity against human SH-SY5Y cells assessed as effect on cell viability at 50 uM measured after 24 hrs by MTT assay relative to control. The conditions noted are these: read-out: Activity. It is filed as toxicity, cell-based. On the technique in general: Tetrazolium assays rely on reduction of a dye to a coloured formazan, in cell work by metabolically active cells.

A short description of data set [2]: Therapeutic index, ratio of effective concentration for cytotoxicity in human SH-SY5Y cells to effective concentration for activation of PXR/LXR in human LS180 cells assessed as induction of P-gp. The data set is classed as cell-based. The conditions noted are these: read-out: TI.
A short description of data set [3]: Therapeutic index, ratio of effective concentration for cytotoxicity in human LS180 cells to effective concentration for activation of PXR/LXR in human LS180 cells assessed as induction of P-gp. It is filed as cell-based. As to conditions: read-out: TI.
The nature of data set [4]: Cytotoxicity against human LS180 cells assessed as effect on cell viability at 50 uM measured after 24 hrs by MTT assay relative to control. The conditions noted are these: read-out: Activity. It is filed as toxicity, cell-based.
A further data set concerns LS180. Description: Activation of PXR/LXR in human LS180 cells assessed as induction of P-gp measured as intracellular accumulation of Rhodamine-123 at 5 uM preincubated for 48 hrs followed by 40 mins incubation with HANKS buffer and subsequent addition of Rhodamine-123 measured after 90 mins by fluorescence analysis relative to control. It is filed as cell-based.

For `CCOC(=O)c1ccc(-n2cc(CN(c3ccc(C(O)(C(F)(F)F)C(F)(F)F)cc3)S(=O)(=O)c3ccccc3)nn2)cc1`, the results for the viability at 24 h, 50 µM in data set [1] and in data set [4] were 73.8% and 76.5%, respectively. In addition, the selectivity ratio in data set [2] and in data set [3] was 10 in each case. For the same compound, in the data set on LS180, the Activity came out at 91.3%.
On to `O=S(=O)(c1ccccc1)N(Cc1cn(-c2ccc(F)cc2F)nn1)c1ccc(C(O)(C(F)(F)F)C(F)(F)F)cc1`, for which the viability at 24 h, 50 µM came out at 86.5% in data set [1] and 93.6% in data set [4]. Moreover, in data set [2], the selectivity ratio was found to be 10. The Activity in the data set on LS180 worked out at 66.3%.
Regarding `CC(=O)c1ccc(N(Cc2cn(-c3ccc(O)c([N+](=O)[O-])c3)nn2)S(=O)(=O)c2ccccc2)cc1`, the viability at 24 h, 50 µM in data set [1] was 71.3%; in data set [4], 96.1%. Moreover, the selectivity ratio in data set [2] and in data set [3] was 10 throughout. Besides, the Activity in the data set with LS180 was 74%.
Consider `CC(=O)c1ccc(N(Cc2cn(-c3ccccc3C)nn2)S(=O)(=O)c2ccccc2)cc1`, for which the figures for the viability at 24 h, 50 µM in data set [1] and in data set [4] were 92.9% and 64.4%, respectively. Moreover, the selectivity ratio in data set [2] and in data set [3] was 10 in each case. Besides, the Activity with LS180 stood at 65.1%.
Consider `CC(=O)c1ccc(N(Cc2cn(-c3ccccc3F)nn2)S(=O)(=O)c2ccccc2)cc1`, for which the figures for the viability at 24 h, 50 µM in data set [1] and in data set [4] were 93.6% and 83.8%, respectively. For the same compound, the selectivity ratio in data set [2] came to 10. Further, in the data set with LS180, the Activity is 55.7%.
As for `CC(=O)c1ccc(N(CC(F)(F)F)S(=O)(=O)c2ccccc2)cc1`, the viability at 24 h, 50 µM in data set [1] was found to be 81.3%; in data set [4], 88.3%. Moreover, the selectivity ratio in data set [3] turned out to be 10. In the data set with LS180, the Activity is 63.5%.
With `CC(=O)c1ccc(N(Cc2cn(-c3ccc([N+](=O)[O-])cc3)nn2)S(=O)(=O)c2ccccc2)cc1`, the viability at 24 h, 50 µM in data set [1] was 105%; in data set [4] it was 74.7%. In addition, the selectivity ratio in data set [2] and in data set [3] was 10 each time. In the data set on LS180, the Activity stood at 55.6%.
With `CC(=O)c1ccc(N(Cc2cn(-c3cccc(C(C)=O)c3)nn2)S(=O)(=O)c2ccccc2)cc1`, the viability at 24 h, 50 µM in data set [1] was 78.7%; in data set [4] it was 84.7%. The selectivity ratio in data set [2] and in data set [3] was 10 each time. The Activity in the data set with LS180 stood at 71%.
Consider `COC(=O)c1ccc(-n2cc(CN(c3ccc(C(C)=O)cc3)S(=O)(=O)c3ccccc3)nn2)cc1`, for which the viability at 24 h, 50 µM was determined as 71.8% in data set [1] and 80.6% in data set [4]. For the same compound, the selectivity ratio in data set [2] and in data set [3] was 10 in each case. In the data set with LS180, the Activity is 77%.
For the compound `COc1ccc(-n2cc(CN(c3ccc(C(O)(C(F)(F)F)C(F)(F)F)cc3)S(=O)(=O)c3ccccc3)nn2)cc1`, the viability at 24 h, 50 µM in data set [1] was determined as 59.2%; in data set [4], 84.9%. In addition, the selectivity ratio in data set [2] and in data set [3] was 10 each time. Moreover, the Activity with LS180 amounted to 81.4%.
As to `COc1ccc(-n2cc(CN(c3ccc(C(C)=O)cc3)S(=O)(=O)c3ccccc3)nn2)cc1`, the viability at 24 h, 50 µM in data set [1] is 88.5%; in data set [4], 93.3%. Further, the selectivity ratio in data set [2] and in data set [3] was 10 throughout. Also, in the data set on LS180, the Activity was found to be 86.3%.
Take `CC(=O)c1ccc(N(Cc2ccccc2)S(=O)(=O)c2ccccc2)cc1`: the figures for the viability at 24 h, 50 µM in data set [1] and in data set [4] were 112% and 89.5%, respectively. For the same compound, the selectivity ratio in data set [3] stood at 10. Further, in the data set on LS180, the Activity came to 64.5%.
Turning to `CC(=O)c1ccc(N(Cc2cn(-c3ccc(C(O)(C(F)(F)F)C(F)(F)F)cc3)nn2)S(=O)(=O)c2ccccc2)cc1`, the results for the viability at 24 h, 50 µM in data set [1] and in data set [4] were 123% and 103%, respectively. Further, the Activity in the data set with LS180 was determined as 87.4%.
For the compound `O=S(=O)(c1ccccc1)N(Cc1cn(-c2ccc(C(F)(F)F)cc2)nn1)c1ccc(C(O)(C(F)(F)F)C(F)(F)F)cc1`, the figures for the viability at 24 h, 50 µM in data set [1] and in data set [4] were 49.8% and 62.8%, respectively. The selectivity ratio in data set [2] and in data set [3] was 10 in each case. For the same compound, in the data set on LS180, the Activity came to 70.2%.
On to `Cc1ccc(-n2cc(CN(c3ccc(C(O)(C(F)(F)F)C(F)(F)F)cc3)S(=O)(=O)c3ccccc3)nn2)cc1`, for which the viability at 24 h, 50 µM was 48.9% in data set [1] and 71.9% in data set [4]. Further, the selectivity ratio in data set [3] amounted to 10. For the same compound, the Activity with LS180 was determined as 74.6%.
Take `CC(=O)c1ccc(N(Cc2cn(-c3c(C)cccc3C)nn2)S(=O)(=O)c2ccccc2)cc1`: the figures for the viability at 24 h, 50 µM in data set [1] and in data set [4] were 80.4% and 60.6%, respectively. The selectivity ratio in data set [2] and in data set [3] was 10 each time. In addition, in the data set on LS180, the Activity was 58.4%.
For `Cc1ccc(-n2cc(CN(c3ccc(C(O)(C(F)(F)F)C(F)(F)F)cc3)S(=O)(=O)c3ccccc3)nn2)cc1C`, the viability at 24 h, 50 µM in data set [1] was 68.7%; in data set [4] it was 80%. The selectivity ratio in data set [2] and in data set [3] was 10 in each case. Further, in the data set with LS180, the Activity worked out at 68.7%.
Consider `CC(=O)c1ccc(N(Cc2cn(-c3ccc(C(C)=O)cc3)nn2)S(=O)(=O)c2ccccc2)cc1`, for which the viability at 24 h, 50 µM in data set [1] was determined as 97.3%; in data set [4], 87.3%. For the same compound, the selectivity ratio in data set [2] and in data set [3] was 10 each time. In addition, the Activity in the data set with LS180 was found to be 66.2%.
In the case of `O=S(=O)(c1ccccc1)N(Cc1cn(-c2cccc(F)c2)nn1)c1ccc(C(O)(C(F)(F)F)C(F)(F)F)cc1`, the viability at 24 h, 50 µM turned out to be 29.8% in data set [1] and 56% in data set [4]. Also, the selectivity ratio in data set [2] and in data set [3] was 10 throughout. The Activity in the data set with LS180 was determined as 90.3%.
On to `O=S(=O)(c1ccccc1)N(Cc1cn(-c2ccccc2)nn1)c1ccc(C(O)(C(F)(F)F)C(F)(F)F)cc1`, for which the viability at 24 h, 50 µM in data set [1] was 39.5%; in data set [4] it was 46.4%. The selectivity ratio in data set [2] and in data set [3] was 10 throughout. The Activity in the data set with LS180 worked out at 87.9%.
Regarding `CC(=O)c1ccc(N(Cc2cn(-c3ccc(F)cc3)nn2)S(=O)(=O)c2ccccc2)cc1`, the viability at 24 h, 50 µM worked out at 90.4% in data set [1] and 60% in data set [4]. In addition, the selectivity ratio in data set [2] turned out to be 10. Moreover, the Activity in the data set with LS180 is 55.9%.
On to `CC(=O)c1ccc(-n2cc(CN(c3ccc(C(O)(C(F)(F)F)C(F)(F)F)cc3)S(=O)(=O)c3ccccc3)nn2)cc1`, for which the viability at 24 h, 50 µM in data set [1] turned out to be 42.2%; in data set [4], 70.7%. Moreover, the selectivity ratio in data set [2] and in data set [3] was 10 in each case. Moreover, the Activity in the data set on LS180 worked out at 81.6%.
Regarding `O=S(=O)(c1ccccc1)N(Cc1cn(-c2ccc(OC(F)(F)F)cc2)nn1)c1ccc(C(O)(C(F)(F)F)C(F)(F)F)cc1`, the viability at 24 h, 50 µM in data set [1] was 43.5%; in data set [4] it was 68.7%. Besides, the selectivity ratio in data set [2] and in data set [3] was 10 throughout. Further, the Activity in the data set with LS180 stood at 67.8%.
On to `CC(=O)c1ccc(N(Cc2cn(-c3ccc(Cl)cc3)nn2)S(=O)(=O)c2ccccc2)cc1`, for which the figures for the viability at 24 h, 50 µM in data set [1] and in data set [4] were 74.4% and 88.1%, respectively. In data set [3], the selectivity ratio was found to be 10. In the data set with LS180, the Activity turned out to be 68.8%.
